Experimental findings from patent US11351151B2, “Compound having anticancer activity and preparation method and application” (3D Medicines (Beijing) Co., Ltd., priority 2016, dated 2022) are described below.

Holding throughout (test): Cell proliferation assay (Alamar Blue)
Holding throughout (type): cell-based

The test system of one assay is AN3CA. Particulars: Homo sapiens, AN3-CA, 144 h; AN3CA (endometrial cells); 6 days. As for the experimental part:
(§1) 1. Instruments and Materials • Thermo 311 CO2 incubator; Haier biosafety cabinet; Molecular Devices microplate reader; Xiangyi brand L530 desktop low speed centrifuge; Olympus IX51 inverted fluorescence microscope, DMEM, RPMI 1640, MEM, DMEM/F12 1:1 medium, Fetal bovine serum, 0.25% trypsin solution, phosphate buffer (Thermo Fisher Shanghai Co., Ltd.); sigma dimethyl sulfoxide (DMSO), resazurin; 54 commercial tumor cell lines (including 26 liver cancer cell lines). Experimental drugs: compounds 1-12 and active drug Linifanib; chemotherapeutic drug Doxorubicin (HY-15142; Shanghai Qianyuan Biomedical Technology Co., Ltd.).
(§2) 2. Experimental Methods • 2.1 Cultivation of different cell lines • 54 cell lines were cultured in a culture medium containing fetal bovine serum and placed in a 5% CO 2 incubator at 37° C. for incubation. The cells were all grown in an adherent state, and the growth was observed under an inverted microscope, and subculture was performed when the cell confluence rate reached 80%-90%. The proportion and quantity of passage were determined by experimental needs. The ratio of subculture of this cell line was generally 1:2^˜1:3. • 2.2 inhibition effect on the proliferation of different tumor cell lines • Cell test: 54 cell lines in logarithmic growth phase were inoculated in 96-well culture plates at 500^˜1×10^4/well (the optimal seeding density of each cell line was determined in pre-experiment), After incubating at 37° C. for 4 h in a 5% CO2 humidification incubator, added 10 μL of compounds 1-12 or Linifanib to each well, and tested 9 drug concentration gradients for each compound (diluted from the highest concentration of the test by 3.16 times). The solubility of each compound was different at a starting concentration of 30 or 100 μM, respectively. The QC reference compound Doxorubicin was added simultaneously to each cell line test, and the final drug concentrations were 10, 3.16, 1, 0.31, 0.1, 0.03, 0.01, 0.003, and 0.001 μM, respectively. In addition, a positive control group (100% inhibition) and a negative control group (0% inhibition) were set at the same time. The drug group was repeated for 2 wells per concentration, and the positive control group and the negative control group were repeated for 6 wells. After the culture was continued for 6 days in the incubator, AlamarBlue test operation was followed; • AlamarBlue test procedure: Incubated with 10 μL of AlamarBlue reagent per well for 1-4 h, shook for 1-2 min, MD microplate reader EX: 560 nm, EM: 590 nm wavelength to measure fluorescence, recorded the results, calculated the cell inhibition rate of the compound of the invention. Cell inhibition rate (%)=(A0% inhibition−A administration)/(A0% inhibition−A100% inhibition)×100%, and then using the method of nonlinear regression using Graph Pad Prism 5.0 or MATILAB software (usually using four parameters) to graph and obtain a drug dose response curve to obtain an IC50 value of the compound of the present invention acting on a cancer cell line.

For another assay, the system named is CCRF-CEM. Particulars: Homo sapiens, 144 h; CCRF-CEM tumor cell line; 6 days. As to the method: as §1, §2
The subject of a further assay is DLD1. To be noted: Homo sapiens, DLD-1, 144 h; DLD1 tumor cell line; 6 days. As for the experimental part:
as §1, §2

For a further assay, the system named is DU145. Particulars: Homo sapiens, DU-145, 144 h; DU145 tumor cell line; 6 days. As to the method:
as §1, §2

A further assay relates to HCCLM3. To be noted: Homo sapiens, 144 h; HCCLM3 tumor cell line; 6 days. As to the method:
as §1, §2

In a further assay the test system is HEPG2. To be noted: Homo sapiens, 144 h; HEPG2 liver cancer cell line; 6 days. As for the experimental part:
as §1, §2

A further assay deals with HT1080. To be noted: Homo sapiens, HT-1080, 144 h; HT1080 tumor cell line; 6 days. As to the method: as §1, §2
For the next assay, the system named is HUH6. Particulars: Homo sapiens, HuH-6, 144 h; HUH6 liver cancer cell line; 6 days. As to the method:
as §1, §2

The next assay deals with Hep3B2.1-7. Particulars: 144 h; Hep3B2.1-7 liver cancer cell line; 6 days. As for the experimental part:
as §1, §2

A further assay has as its system HuTu80. To be noted: Homo sapiens, 144 h; HuTu80 tumor cell line; 6 days. As for the experimental part:
as §1, §2

For the next assay, the system named is JHH2. Particulars: JHH-2, 144 h; JHH2 liver cancer cell line; 6 days. As for the experimental part: as §1, §2
In the next assay the test system is LNCAP-clone-FGC. Particulars: Homo sapiens, 144 h; LNCAP-clone-FGC tumor cell line; 6 days. As for the experimental part: as §1, §2
The subject of another assay is Li-7. Particulars: 144 h; Li-7 liver cancer cell line; 6 days. As for the experimental part: as §1, §2
The next assay has as its system MDA-MB-231. To be noted: Homo sapiens, 144 h; MDA-MB-231 tumor cell line; 6 days. As for the experimental part:
as §1, §2

The test system of another assay is MG63. Particulars: Homo sapiens, MG-63, 144 h; MG63 tumor cell line; 6 days. As for the experimental part: as §1, §2
Another assay has as its system NCl-H1648. Particulars: 144 h; NCl-H1648 tumor cell line; 6 days. As to the method:
as §1, §2

For another assay, the system named is NCl-H1703. To be noted: 144 h; NCl-H1703 (lung cancer cells); 6 days. As for the experimental part: as §1, §2
Another assay concerns SK-HEP-1. To be noted: Homo sapiens, SK-HEP1, 144 h; SK-HEP-1 liver cancer cell line; 6 days. As to the method: as §1, §2
The subject of another assay is SNU182. To be noted: Homo sapiens, SNU-182, 144 h; SNU182 liver cancer cell line; 6 days. As for the experimental part: as §1, §2
The subject of another assay is SNU398. To be noted: Homo sapiens, SNU-398, 144 h; SNU398 liver cancer cell line; 6 days. As for the experimental part: as §1, §2
A further assay deals with SNU739. Particulars: SNU-739, 144 h; SNU739 liver cancer cell line; 6 days. As to the method:
as §1, §2

In a further assay the test system is SNU761. To be noted: 144 h; SNU761 liver cancer cell line; 6 days. As for the experimental part: as §1, §2
Another assay has as its system TE-6. To be noted: Homo sapiens, 144 h; TE-6 tumor cell line; 6 days. As to the method:
as §1, §2

For `Cc1ccc(F)c(NC(=O)Nc2ccc(-c3cccc4c3c(N)nn4C(=O)C[C@H](N)C(=O)N[C@@H](CCC(=O)N[C@@H](CCC(=O)N[C@@H](CCC(=O)N[C@@H](CCC(=O)O)C(=O)O)C(=O)O)C(=O)O)C(=O)O)cc2)c1` [Compound 2], the IC50 is 0.45 µM in the assay on AN3CA; 6.33 µM in the assay with CCRF-CEM; 14 µM in the assay on DLD1; 4.89 µM in the assay on DU145; 15.8 µM in the assay on HCCLM3; 0.64 µM in the assay on HEPG2. Further, the half-inhibitory concentration (IC50) was 19.3 µM in the assay on HT1080; 0.82 µM with HUH6; 3.43 µM with Hep3B2.1-7; 5.62 µM with HuTu80; 36 µM with JHH2; 6.34 µM with LNCAP-clone-FGC. Further, the IC50 was 7.26 µM with Li-7; 5.02 µM in the assay on MDA-MB-231; 15.8 µM in the assay on MG63; 8.91 µM in the assay with NCl-H1648; 0.063 µM in the assay with NCl-H1703; 9.25 µM in the assay with SK-HEP-1. Also, the IC50 turned out to be 32.1 µM in the assay on SNU182; 6.37 µM with SNU398; 6.33 µM in the assay with SNU739; 15.3 µM in the assay on SNU761; 7.03 µM with TE-6.
On to `Cc1ccc(F)c(NC(=O)Nc2ccc(-c3cccc4[nH]nc(N)c34)cc2)c1` [Linifanib, reference compound], for which the IC50 is 0.19 µM with AN3CA; 5.03 µM in the assay on CCRF-CEM; 11.6 µM in the assay on DLD1; 5.01 µM in the assay on DU145; 6.67 µM in the assay on HCCLM3; 0.83 µM in the assay on HEPG2. The IC50 was 6.4 µM in the assay with HT1080; over 30 µM in the assay on HUH6; 1.96 µM in the assay with Hep3B2.1-7; 1.85 µM with HuTu80; 29.5 µM in the assay with JHH2; 11.3 µM in the assay on LNCAP-clone-FGC. Besides, the IC50 in the assay with Li-7 amounted to 5.43 µM; with MDA-MB-231 it was 4.03 µM; with MG63, 1.78 µM; with NCl-H1648, 7.17 µM; in the assay on NCl-H1703, 0.02 µM; with SK-HEP-1, 7.11 µM. The IC50 worked out at 15.2 µM in the assay with SNU182; 1.91 µM with SNU398; 5.45 µM with SNU739; 8.98 µM in the assay on SNU761; 4.09 µM in the assay on TE-6.
With `Cc1ccc(F)c(NC(=O)Nc2ccc(-c3cccc4c3c(N)nn4C(=O)C[C@H](N)C(=O)N[C@@H](CCC(=O)N[C@@H](CCC(=O)N[C@@H](CCC(=O)N[C@@H](CCC(=O)N[C@@H](CCC(=O)N[C@@H](CCC(=O)N[C@@H](CCC(=O)N[C@@H](CCC(=O)N[C@@H](CCC(=O)O)C(=O)O)C(=O)O)C(=O)O)C(=O)O)C(=O)O)C(=O)O)C(=O)O)C(=O)O)C(=O)O)cc2)c1` [Compound 3], the IC50 in the assay on AN3CA came to 0.64 µM; in the assay with CCRF-CEM, 10.2 µM; with DLD1 it was 20.3 µM; in the assay with DU145, 7.38 µM; with HCCLM3 it was 25.7 µM; in the assay with HEPG2, 1.73 µM. Further, the IC50 in the assay on HT1080 turned out to be 25.8 µM; in the assay with HUH6 it was 1.55 µM; in the assay with Hep3B2.1-7 it was 5.33 µM; with HuTu80, 7.33 µM; with JHH2 it was 40.7 µM; in the assay with LNCAP-clone-FGC it was 15.4 µM. For the same compound, the IC50 with Li-7 is 10.1 µM; in the assay on MDA-MB-231, 8.51 µM; in the assay on MG63, 27.1 µM; in the assay with NCl-H1648, 13.6 µM; in the assay with NCl-H1703 it was 0.15 µM; in the assay on SK-HEP-1 it was 15.8 µM. Further, the IC50 in the assay on SNU182 turned out to be 54.2 µM; in the assay on SNU398 it was 17.1 µM; in the assay on SNU739, 8.05 µM; with SNU761 it was 29.1 µM; in the assay with TE-6 it was 11.3 µM.

The term IC50 denotes the concentration that gives 50% inhibition. Lower therefore signals inhibition by little substance.
